# Assay results from patent publication US12302908B2, “Insect neuropeptides 4” (Solasta Bio Limited, priority 2023, dated 2025).
# Assays:
# Plutella xylostella [1] = assay: Leaf dip assay 1 (IRAC susceptibility test method 018, performed by FERA), mortality; assay type: in vivo; details: unformulated peptide at 2×10^−4 M; 2nd/3rd instar larvae on dipped Chinese cabbage leaf discs; mortality assessed after 120 hours; FIG. 4
# Procedure: The assay was carried out based on IRAC susceptibility test method 018 by a contract research organization, FERA Science Ltd. Test insects Larvae (2nd/3rd instar) were sourced from a laboratory culture of P. xylostella. The culture has been maintained in a controlled environment (CE) room with conditions of 25° C. and 16:8 lighting regime on Chinese cabbage plants. Chinese cabbage leaves were used in the bioassays. A CE room set at 25° C. and 60% r.h. with a 16 hour light: 8 hours dark lighting regime, was used. Leaf discs (approximately 35 mm in diameter) were cut from fully expanded Chinese cabbage leaves. Each leaf disc was dipped in a separate peptide solution for 10 seconds with gentle agitation and placed on a damp filter paper (underside surface uppermost). There were ten replicates for each treatment and control, with five leaf discs per replicate. The treated discs were then put onto damp filter paper in the base of a Petri dishes (90 mm in diameter, 15 mm high) (underside surface uppermost). Five larvae were then transferred onto the treated leaf discs. The dishes were placed in the CE room and mortality was assessed after 120 hours. Leaf dip assays were performed with SB—P-81, and compared to a negative control vehicle and a current commercial insecticide Gazelle SG (shown as Acetamiprid). […]
# Plutella xylostella [2] = assay: Leaf dip assay 2 (IRAC susceptibility test method 019), mortality; assay type: in vivo; details: unformulated peptide at 1×10^−4 M; dipped leaf disc on agar; after 96 hours; FIG. 6
# Procedure: The assay was carried out based on IRAC susceptibility test method 019 (irac-online.org/methods/aphids-adultnymphs/). Fill a small 4 cm wide 3 cm high dish with a 1% agar treatment solution of the active chemical or control (ensuring 1 cm gap between the agar and the lid) and leave to set. Dip a 2.5 cm leaf disc into 3 ml of treatment solution allowing the treatment to coat the leaf. Leave the disc to dry for 1 hour and place onto the set agar. Place insects (Plutella xylostella) onto each of the leaf discs. Each unit is sealed with a close-fitting, ventilated lid. Place the agar dishes in a small plastic tray lined with moist tissue paper and ensure the water trays in the bottom of the incubator are filled with clean water and place within the incubator. An assessment of mortality is made at 72, 96 and 120 hours. Leaf dip assays were performed with SB—P-81, and compared to a negative control vehicle and a current commercial insecticide Chlorantraniliprole. The activity of SB—P-81 is shown in FIG. 6; SB—P-81 has good activity whilst being eco-friendly and targeted to specific pests unlike broad spectrum chemical insecticides such as Chlorantraniliprole.
substance,measurement,setting,value
"[Hy]-GGSMTFSPRL-[NH2] (H-GGSMTFSPRL-NH2) [SB—P-81, pyrokinin peptide according to the invention]","activity against Plutella xylostella (mortality), leaf dip assay 1",Plutella xylostella [1],good activity
same,"activity against Plutella xylostella (mortality), leaf dip assay 2",Plutella xylostella [2],good activity
